# Target: T1, EI^Ntr (Escherichia coli, UniProt P37177)
# T1 sequence (P37177 1-748): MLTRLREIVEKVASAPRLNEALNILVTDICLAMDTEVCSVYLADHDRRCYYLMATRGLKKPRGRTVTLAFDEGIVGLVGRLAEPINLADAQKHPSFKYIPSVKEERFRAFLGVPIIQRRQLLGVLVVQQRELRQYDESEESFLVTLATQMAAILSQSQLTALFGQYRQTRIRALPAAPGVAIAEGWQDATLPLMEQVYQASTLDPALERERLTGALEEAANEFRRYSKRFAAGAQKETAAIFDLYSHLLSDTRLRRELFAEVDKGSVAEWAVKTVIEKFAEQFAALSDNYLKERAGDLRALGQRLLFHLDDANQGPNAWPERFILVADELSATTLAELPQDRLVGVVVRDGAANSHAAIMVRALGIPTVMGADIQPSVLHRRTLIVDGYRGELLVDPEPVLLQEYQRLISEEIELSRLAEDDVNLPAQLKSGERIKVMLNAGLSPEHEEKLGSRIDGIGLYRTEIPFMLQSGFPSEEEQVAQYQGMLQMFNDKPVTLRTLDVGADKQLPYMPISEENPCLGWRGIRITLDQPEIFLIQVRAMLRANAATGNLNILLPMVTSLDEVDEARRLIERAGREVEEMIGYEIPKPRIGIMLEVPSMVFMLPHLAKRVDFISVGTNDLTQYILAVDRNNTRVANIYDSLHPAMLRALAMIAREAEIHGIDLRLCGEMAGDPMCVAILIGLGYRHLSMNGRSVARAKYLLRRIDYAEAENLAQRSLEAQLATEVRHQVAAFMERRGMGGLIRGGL
# Assay: intrinsic tryptophan fluorescence quenching
# Assay type: binding
row,Compound,Kd
1,NC(=O)CC[C@H](N)C(=O)O [glutamine],700 µM
2,O=C(O)CCC(=O)C(=O)O [α-ketoglutarate],3300 µM
